Read-outs that look alike come from different tables or passages of the source.
Legend:
[1] = tested on: PRV (pseudorabies virus); type: cell-based
[2] = tested on: MuLV (murine leukemia virus); type: cell-based
[3] = tested on: VACV (Vaccinia virus); type: cell-based
[4] = tested on: VSV (Vesicular Stomatitis Virus); type: cell-based
[5] = biological target: T1, rD′D3-FP (Homo sapiens, UniProt P02768+P04275)
T1 construct: made in house; host or cells: CHO cells

[6] = tested on: BVDV (bovine viral diarrhea virus); type: cell-based

T1 sequence (P04275+P02768 fused): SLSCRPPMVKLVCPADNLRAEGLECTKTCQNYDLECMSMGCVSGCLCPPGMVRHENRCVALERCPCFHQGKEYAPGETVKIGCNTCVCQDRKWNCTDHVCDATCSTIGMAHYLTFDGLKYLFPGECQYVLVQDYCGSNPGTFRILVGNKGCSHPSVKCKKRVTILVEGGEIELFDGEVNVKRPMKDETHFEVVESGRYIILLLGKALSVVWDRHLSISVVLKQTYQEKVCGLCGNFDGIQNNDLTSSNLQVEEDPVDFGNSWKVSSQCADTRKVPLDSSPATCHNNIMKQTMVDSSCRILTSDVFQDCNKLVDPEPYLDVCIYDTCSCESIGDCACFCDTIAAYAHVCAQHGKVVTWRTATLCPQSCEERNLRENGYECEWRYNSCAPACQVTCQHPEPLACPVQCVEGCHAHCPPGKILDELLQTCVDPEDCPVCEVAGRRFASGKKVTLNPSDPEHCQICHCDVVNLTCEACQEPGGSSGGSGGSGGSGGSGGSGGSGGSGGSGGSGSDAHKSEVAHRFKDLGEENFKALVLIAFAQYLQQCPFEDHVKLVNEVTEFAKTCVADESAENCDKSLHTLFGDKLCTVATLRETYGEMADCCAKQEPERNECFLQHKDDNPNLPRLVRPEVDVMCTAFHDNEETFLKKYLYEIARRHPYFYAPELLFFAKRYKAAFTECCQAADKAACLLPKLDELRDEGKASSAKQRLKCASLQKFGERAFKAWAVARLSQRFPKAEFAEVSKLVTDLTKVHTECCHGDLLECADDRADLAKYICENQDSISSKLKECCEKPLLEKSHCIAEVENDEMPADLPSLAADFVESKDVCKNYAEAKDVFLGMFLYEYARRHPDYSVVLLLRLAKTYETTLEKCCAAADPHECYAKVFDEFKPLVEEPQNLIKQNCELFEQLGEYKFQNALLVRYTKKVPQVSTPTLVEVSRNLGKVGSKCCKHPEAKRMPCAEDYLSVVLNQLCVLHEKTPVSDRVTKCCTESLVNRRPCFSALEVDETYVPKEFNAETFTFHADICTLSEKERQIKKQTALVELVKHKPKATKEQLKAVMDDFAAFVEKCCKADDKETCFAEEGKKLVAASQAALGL

CCCCCCCCCCO[C@@H]1O[C@H](CO)[C@@H](O[C@H]2O[C@H](CO)[C@@H](O)[C@H](O)[C@H]2O)[C@H](O)[C@H]1O [DM, n-decyl-beta-D-maltoside]
PRV virus titre after treatment [1]: ≤2.2 | virus inactivation capacity (in words) [1]: effective

CCCCCCCCCCO[C@@H]1O[C@H](CO)[C@@H](O)[C@H](O)[C@H]1O [DG, n-decyl-beta-D-glucopyranoside]
PRV virus titre after treatment [1]: ≤2.2 | virus inactivation capacity (in words) [1]: effective

CCCCCCCCCCCCO[C@@H]1O[C@H](CO)[C@@H](O)[C@H](O)[C@H]1O [DDG, n-dodecyl-beta-D-glucopyranoside]
PRV virus titre after treatment [1]: ≤2.2 | virus inactivation capacity (in words) [1]: effective

CCCCCCCCO[C@@H]1O[C@H](CO)[C@@H](O)[C@H](O)[C@H]1O [OG, n-octyl-beta-D-glucopyranoside]
LRV [2]: ≥4.2 log10 | MuLV virus titre after treatment [2]: ≤1.2 | time to complete MuLV inactivation [2]: ≤ 15 min | VACV inactivation (in words) [3]: completely inactivates VACV very fast | VACV virus titre after treatment [3]: ≤1.5 | VSV virus titre after treatment [4]: ≤1.5 | LRV [1]: ≥6.3 log10 | time to complete PRV inactivation [1]: 60 min | virus inactivation capacity (in words) [1]: effective | PRV Load ([1]; 15 min): ≤1.2 log10 | PRV Load ([1]; 120 min): 6.7 log10 | rD′D3-FP in the eluate fraction [5]: 83% | BVDV virus titre after treatment [6]: ≤1.2 | LRV [6]: ≥5.3 log10 | time to complete BVDV inactivation [6]: ≤ 15 min

CCCCCCCCCCCCO[C@@H]1O[C@H](CO)[C@@H](O[C@H]2O[C@H](CO)[C@@H](O)[C@H](O)[C@H]2O)[C@H](O)[C@H]1O [DDM, n-dodecyl-beta-D-maltoside]
PRV virus titre after treatment [1]: ≤4.2 | virus inactivation capacity (in words) [1]: effective

CCCCCCCCO[C@@H]1O[C@H](CO)[C@@H](O[C@H]2O[C@H](CO)[C@@H](O)[C@H](O)[C@H]2O)[C@H](O)[C@H]1O [OM, n-octyl-beta-D-maltoside]
virus inactivation capacity (in words) [1]: effective

Reference: patent US11479578B2, “Protein purification and virus inactivation with alkyl glycosides” (priority 2017, dated 2022)
